Test results as given in ChEMBL document CHEMBL1201862, “PubChem BioAssay data set” (2004).
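All cell lines were grown in 96-well plates and treated with compound for 48 hours. GI50 marks 50% less growth.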 Calls of active or inactive are those of the source. Rule as the data show it: active = GI50 up to about 1.1 µM and inactive = higher.

Assays:
Assay in all cases: DTP human tumour cell line panel, 48 h
786-0 = tested on: 786-0
A498 = tested on: A498
A549 = tested on: A549
BT-549 = tested on: BT-549
CAKI-1 = tested on: CAKI-1
COLO 205 = tested on: COLO 205
DU-145 = tested on: DU-145
EKVX = tested on: EKVX
HCC 2998 = tested on: HCC 2998
HCT-116 = tested on: HCT-116
HCT-15 = tested on: HCT-15
HL-60 = tested on: HL-60
HOP-92 = tested on: HOP-92
HT-29 = tested on: HT-29
Hs-578T = tested on: Hs-578T
IGROV-1 = tested on: IGROV-1
K562 = tested on: K562
KM12 = tested on: KM12
LOX IMVI = tested on: LOX IMVI
M14 = tested on: M14
MCF7 = tested on: MCF7
MDA-MB-231 = tested on: MDA-MB-231
MDA-MB-435 = tested on: MDA-MB-435
MDA-N = tested on: MDA-N
MOLT-4 = tested on: MOLT-4
Malme-3M = tested on: Malme-3M
NCI-H226 = tested on: NCI-H226
NCI-H460 = tested on: NCI-H460
NCI-H522 = tested on: NCI-H522
NCI/ADR-RES = tested on: NCI/ADR-RES
OVCAR-3 = tested on: OVCAR-3
OVCAR-4 = tested on: OVCAR-4
OVCAR-5 = tested on: OVCAR-5
OVCAR-8 = tested on: OVCAR-8
PC-3 = tested on: PC-3
RPMI-8226 = tested on: RPMI-8226
RXF 393 = tested on: RXF 393
SF-268 = tested on: SF-268
SF-539 = tested on: SF-539
SK-MEL-28 = tested on: SK-MEL-28
SK-MEL-2 = tested on: SK-MEL-2
SK-MEL-5 = tested on: SK-MEL-5
SK-OV-3 = tested on: SK-OV-3
SN12C = tested on: SN12C
SNB-19 = tested on: SNB-19
SNB-75 = tested on: SNB-75
SR = tested on: SR
SW-620 = tested on: SW-620
T47D = tested on: T47D
TK-10 = tested on: TK-10
U-251 = tested on: U-251
UACC-257 = tested on: UACC-257
UACC-62 = tested on: UACC-62
UO-31 = tested on: UO-31
ACHN = tested on: ACHN
CCRF-CEM = tested on: CCRF-CEM
HOP-62 = tested on: HOP-62
NCI-H23 = tested on: NCI-H23
SF-295 = tested on: SF-295

Measured: GI50

Cc1c(C)c(C)c(-n2c(=O)n(C)c(=O)n2-n2c(=O)n(C)c(=O)n2-c2c(C)c(C)c(C)c(C)c2C)c(C)c1C
> 100 µM: HCT-15
active: Hs-578T 0.0533 µM
inactive: 786-0 > 100 µM | A498 > 100 µM | A549 > 100 µM | BT-549 > 100 µM | CAKI-1 > 100 µM | COLO 205 > 100 µM | DU-145 > 100 µM | EKVX > 100 µM | HCC 2998 > 100 µM | HCT-116 > 100 µM | HL-60 12.1 µM | HOP-92 > 100 µM | HT-29 > 100 µM | IGROV-1 51.5 µM | K562 > 100 µM | KM12 > 100 µM | LOX IMVI 92.5 µM | M14 > 100 µM | MCF7 > 100 µM | MDA-MB-231 > 100 µM | MDA-MB-435 > 100 µM | MDA-N > 100 µM | MOLT-4 40 µM | Malme-3M > 100 µM | NCI-H226 37.8 µM | NCI-H460 > 100 µM | NCI-H522 44.2 µM | NCI/ADR-RES 61.2 µM | OVCAR-3 > 100 µM | OVCAR-4 > 100 µM | OVCAR-5 > 100 µM | OVCAR-8 > 100 µM | PC-3 > 100 µM | RPMI-8226 > 100 µM | RXF 393 > 100 µM | SF-268 > 100 µM | SF-539 > 100 µM | SK-MEL-28 > 100 µM | SK-MEL-2 > 100 µM | SK-MEL-5 > 100 µM | SK-OV-3 > 100 µM | SN12C > 100 µM | SNB-19 > 100 µM | SNB-75 > 100 µM | SR 20.5 µM | SW-620 > 100 µM | T47D > 100 µM | TK-10 > 100 µM | U-251 > 100 µM | UACC-257 > 100 µM | UACC-62 > 100 µM | UO-31 > 100 µM

OC(COc1cccc2ccccc12)CN1CCOCC1 (configuration not stated)
inactive: 786-0 > 100 µM | A498 > 100 µM | A549 > 100 µM | ACHN > 100 µM | BT-549 > 100 µM | CAKI-1 > 100 µM | CCRF-CEM > 100 µM | COLO 205 > 100 µM | DU-145 > 100 µM | EKVX 95.1 µM | HCC 2998 > 100 µM | HCT-116 > 100 µM | HL-60 > 100 µM | HOP-62 > 100 µM | HOP-92 22.2 µM | HT-29 > 100 µM | Hs-578T 75.5 µM | IGROV-1 39.9 µM | K562 > 100 µM | KM12 > 100 µM | LOX IMVI > 100 µM | M14 > 100 µM | MCF7 > 100 µM | MDA-MB-231 > 100 µM | MDA-MB-435 > 100 µM | MDA-N > 100 µM | MOLT-4 44.6 µM | Malme-3M > 100 µM | NCI-H226 > 100 µM | NCI-H23 > 100 µM | NCI-H460 > 100 µM | NCI-H522 54 µM | NCI/ADR-RES > 100 µM | OVCAR-3 > 100 µM | OVCAR-4 > 100 µM | OVCAR-5 > 100 µM | OVCAR-8 > 100 µM | PC-3 > 100 µM | RPMI-8226 > 100 µM | RXF 393 > 100 µM | SF-268 > 100 µM | SF-295 > 100 µM | SF-539 > 100 µM | SK-MEL-28 > 100 µM | SK-MEL-2 > 100 µM | SK-MEL-5 > 100 µM | SK-OV-3 > 100 µM | SN12C > 100 µM | SNB-19 > 100 µM | SNB-75 > 100 µM | SR > 100 µM | SW-620 > 100 µM | T47D > 100 µM | TK-10 > 100 µM | U-251 > 100 µM | UACC-257 > 100 µM | UACC-62 > 100 µM | UO-31 > 100 µM
> 100 µM: HCT-15

C/C(=N\NC(=S)NCCCCNC(=S)N/N=C(\C)c1ccccn1)c1ccccc1
active: ACHN 0.601 µM | BT-549 0.897 µM | CCRF-CEM 0.391 µM | COLO 205 0.832 µM | DU-145 0.979 µM | HCT-116 0.331 µM | HOP-62 0.745 µM | HT-29 0.531 µM | IGROV-1 0.736 µM | LOX IMVI 0.845 µM | MCF7 0.416 µM | MOLT-4 0.556 µM | Malme-3M 0.845 µM | NCI-H460 0.481 µM | NCI/ADR-RES 0.914 µM | OVCAR-3 0.424 µM | OVCAR-8 0.337 µM | RXF 393 1.02 µM | SF-268 0.394 µM | SF-295 0.982 µM | SF-539 1.11 µM | SK-MEL-5 0.714 µM | SN12C 0.859 µM | SNB-75 0.993 µM | SR 0.317 µM | T47D 0.351 µM | TK-10 0.839 µM | U-251 0.962 µM | UACC-62 1.12 µM | UO-31 0.635 µM
0.484 µM: HCT-15
inactive: 786-0 6.18 µM | A498 3.05 µM | A549 1.66 µM | EKVX 2.23 µM | HCC 2998 1.66 µM | HOP-92 1.55 µM | Hs-578T > 23.6 µM | K562 2.25 µM | KM12 1.77 µM | MDA-MB-231 5.09 µM | MDA-MB-435 > 100 µM | MDA-N 2.25 µM | NCI-H23 2.73 µM | NCI-H522 1.15 µM | OVCAR-4 1.43 µM | OVCAR-5 1.98 µM | PC-3 3.02 µM | RPMI-8226 1.35 µM | SK-MEL-28 2.05 µM | SK-MEL-2 6.71 µM | SK-OV-3 2.27 µM | SNB-19 > 24.8 µM | UACC-257 1.78 µM
